ChEMBL document CHEMBL1201862, “PubChem BioAssay data set” (2004)
Calls of active or inactive are those of the source.

How the values were obtained:
Type in all cases: functional
[1] = biological target: Apoptotic protease-activating factor 1 (Homo sapiens, UniProt O14727)
[2] = biological target: T1, Replicative DNA helicase DnaB (Mycobacterium tuberculosis, UniProt P9WMR3); assay: DnaB intein splicing inhibitors, dose response, biochemical, cell-free fluorescence (AID 449749)
T1 sequence (P9WMR3 whole entry): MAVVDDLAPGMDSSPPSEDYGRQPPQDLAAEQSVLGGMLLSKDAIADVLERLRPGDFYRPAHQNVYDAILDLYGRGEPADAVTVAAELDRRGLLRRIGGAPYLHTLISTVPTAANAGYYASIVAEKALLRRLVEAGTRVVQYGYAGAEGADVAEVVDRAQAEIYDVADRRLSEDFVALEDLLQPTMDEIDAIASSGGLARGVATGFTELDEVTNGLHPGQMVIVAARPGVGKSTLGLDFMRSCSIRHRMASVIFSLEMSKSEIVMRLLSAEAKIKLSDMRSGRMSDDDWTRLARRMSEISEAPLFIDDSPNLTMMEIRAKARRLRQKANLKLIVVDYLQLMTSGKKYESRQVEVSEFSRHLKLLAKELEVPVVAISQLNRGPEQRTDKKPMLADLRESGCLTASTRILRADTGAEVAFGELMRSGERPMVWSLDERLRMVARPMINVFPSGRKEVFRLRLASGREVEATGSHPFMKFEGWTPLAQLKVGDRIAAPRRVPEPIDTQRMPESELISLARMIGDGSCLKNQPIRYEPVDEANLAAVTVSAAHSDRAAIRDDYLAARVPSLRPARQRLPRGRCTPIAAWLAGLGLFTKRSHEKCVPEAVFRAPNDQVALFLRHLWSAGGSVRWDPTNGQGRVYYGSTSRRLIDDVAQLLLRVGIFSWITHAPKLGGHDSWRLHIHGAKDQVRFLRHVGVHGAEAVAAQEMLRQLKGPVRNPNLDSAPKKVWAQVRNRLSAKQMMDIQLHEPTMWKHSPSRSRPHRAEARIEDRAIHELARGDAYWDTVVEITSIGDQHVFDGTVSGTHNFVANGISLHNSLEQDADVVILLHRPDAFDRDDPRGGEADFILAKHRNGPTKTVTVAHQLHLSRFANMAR

[3] = biological target: Vascular endothelial growth factor receptor 2 (Homo sapiens, UniProt P35968)
[4] = biological target: Maternal embryonic leucine zipper kinase (Homo sapiens, UniProt Q14680)
[5] = biological target: Mitogen-activated protein kinase kinase kinase kinase 5 (Homo sapiens, UniProt Q9Y4K4);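 also: measured as one member of a kinome-spanning kinase panel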
[6] = biological target: Ribosomal protein S6 kinase alpha-5 (Homo sapiens, UniProt O75582)
[7] = biological target: Serine/threonine-protein kinase D2 (Homo sapiens, UniProt Q9BZL6);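 also: measured against PRKD2 as one member of a kinome-wide kinase profiling panel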
[8] = biological target: Proto-oncogene tyrosine-protein kinase ROS (Homo sapiens, UniProt P08922);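 also: ROS1 tested as one member of a kinome-wide kinase panel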
[9] = biological target: Receptor tyrosine-protein kinase erbB-4 (Homo sapiens, UniProt Q15303);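 also: ERBB4 member of a kinome-wide kinase profiling panel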
[10] = biological target: Tyrosine-protein kinase SYK (Homo sapiens, UniProt P43405)
[11] = biological target: Megakaryocyte-associated tyrosine-protein kinase (Homo sapiens, UniProt P42679);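 also: affinity measured as one member of a kinase panel (Navigating the Kinome) against MATK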
[12] = biological target: Calcium/calmodulin-dependent protein kinase type 1 (Homo sapiens, UniProt Q14012)
[13] = biological target: Casein kinase II subunit alpha (Homo sapiens, UniProt P68400)
[14] = biological target: Serine/threonine-protein kinase Chk2 (Homo sapiens, UniProt O96017);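 also: CHEK2 entry within a kinome-wide screening panel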
[15] = biological target: Ephrin type-A receptor 2 (Homo sapiens, UniProt P29317);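 also: EPHA2 tested as one member of a kinome-wide kinase panel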
[16] = biological target: MAP kinase-interacting serine/threonine-protein kinase 2 (Homo sapiens, UniProt Q9HBH9)
[17] = biological target: Tyrosine-protein kinase Fer (Homo sapiens, UniProt P16591);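 also: FER tested as one member of a kinome panel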
[18] = biological target: Tyrosine-protein kinase ITK/TSK (Homo sapiens, UniProt Q08881);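 also: affinity for ITK measured as one member of a broad kinase panel profiling binding across the kinome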
[19] = biological target: RAC-alpha serine/threonine-protein kinase (Homo sapiens, UniProt P31749);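 also: AKT1 affinity measured as one member of a kinome-wide kinase profiling panel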
[20] = biological target: Misshapen-like kinase 1 (Homo sapiens, UniProt Q8N4C8);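 also: kinome panel screen with MINK as the panel member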
[21] = biological target: Calcium/calmodulin-dependent protein kinase type II subunit beta (Homo sapiens, UniProt Q13554)
[22] = biological target: Proto-oncogene tyrosine-protein kinase Src (Homo sapiens, UniProt P12931);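 also: SRC entry within a kinome-wide kinase profiling panel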
[23] = biological target: Non-receptor tyrosine-protein kinase TYK2 (Homo sapiens, UniProt P29597)
[24] = biological target: Fibroblast growth factor receptor 3 (Homo sapiens, UniProt P22607)
[25] = biological target: 3-phosphoinositide-dependent protein kinase 1 (Homo sapiens, UniProt O15530);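 also: value comes from the Navigating the Kinome panel, PDPK1 member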
[26] = biological target: Platelet-derived growth factor receptor beta (Homo sapiens, UniProt P09619);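 also: value comes from a kinome panel, with PDGFRB tested as one panel member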
[27] = biological target: Protein kinase C delta type (Homo sapiens, UniProt Q05655)
[28] = biological target: Mitogen-activated protein kinase 13 (Homo sapiens, UniProt O15264)
[29] = biological target: SRSF protein kinase 1 (Homo sapiens, UniProt Q96SB4);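 also: measured as one member of a kinome-wide kinase profiling panel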

Calcium/calmodulin-dependent protein kinase type II subunit beta, sequence (Q13554 whole entry): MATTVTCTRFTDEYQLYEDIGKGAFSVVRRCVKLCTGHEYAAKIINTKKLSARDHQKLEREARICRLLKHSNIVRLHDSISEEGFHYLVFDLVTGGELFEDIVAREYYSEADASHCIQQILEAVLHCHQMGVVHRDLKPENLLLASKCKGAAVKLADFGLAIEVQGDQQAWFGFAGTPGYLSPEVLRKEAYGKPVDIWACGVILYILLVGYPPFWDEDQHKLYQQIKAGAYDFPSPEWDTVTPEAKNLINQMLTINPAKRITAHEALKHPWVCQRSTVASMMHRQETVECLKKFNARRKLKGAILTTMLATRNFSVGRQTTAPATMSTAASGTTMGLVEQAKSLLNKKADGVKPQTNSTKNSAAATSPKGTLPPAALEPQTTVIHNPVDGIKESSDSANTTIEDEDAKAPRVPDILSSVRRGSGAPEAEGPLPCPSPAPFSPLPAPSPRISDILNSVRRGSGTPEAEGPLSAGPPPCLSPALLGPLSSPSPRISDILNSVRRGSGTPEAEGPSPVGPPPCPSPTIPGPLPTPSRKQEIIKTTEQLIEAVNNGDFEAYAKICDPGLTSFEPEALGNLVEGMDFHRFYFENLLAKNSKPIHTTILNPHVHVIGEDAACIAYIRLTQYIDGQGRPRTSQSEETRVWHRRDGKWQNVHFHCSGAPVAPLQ
RAC-alpha serine/threonine-protein kinase, sequence (P31749 whole entry): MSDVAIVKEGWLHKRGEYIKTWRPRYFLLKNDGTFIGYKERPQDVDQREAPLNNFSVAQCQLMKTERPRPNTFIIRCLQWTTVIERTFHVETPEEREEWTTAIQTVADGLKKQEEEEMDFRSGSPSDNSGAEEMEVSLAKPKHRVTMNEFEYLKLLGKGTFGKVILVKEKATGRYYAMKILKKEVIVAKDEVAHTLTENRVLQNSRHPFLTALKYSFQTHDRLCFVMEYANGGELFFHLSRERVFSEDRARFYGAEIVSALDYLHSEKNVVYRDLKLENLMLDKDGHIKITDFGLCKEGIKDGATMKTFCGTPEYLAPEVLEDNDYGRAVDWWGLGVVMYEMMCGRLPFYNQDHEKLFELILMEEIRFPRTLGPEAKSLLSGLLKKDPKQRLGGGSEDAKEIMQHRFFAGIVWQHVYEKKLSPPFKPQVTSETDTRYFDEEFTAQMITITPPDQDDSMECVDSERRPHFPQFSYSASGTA
Apoptotic protease-activating factor 1, sequence (O14727 whole entry): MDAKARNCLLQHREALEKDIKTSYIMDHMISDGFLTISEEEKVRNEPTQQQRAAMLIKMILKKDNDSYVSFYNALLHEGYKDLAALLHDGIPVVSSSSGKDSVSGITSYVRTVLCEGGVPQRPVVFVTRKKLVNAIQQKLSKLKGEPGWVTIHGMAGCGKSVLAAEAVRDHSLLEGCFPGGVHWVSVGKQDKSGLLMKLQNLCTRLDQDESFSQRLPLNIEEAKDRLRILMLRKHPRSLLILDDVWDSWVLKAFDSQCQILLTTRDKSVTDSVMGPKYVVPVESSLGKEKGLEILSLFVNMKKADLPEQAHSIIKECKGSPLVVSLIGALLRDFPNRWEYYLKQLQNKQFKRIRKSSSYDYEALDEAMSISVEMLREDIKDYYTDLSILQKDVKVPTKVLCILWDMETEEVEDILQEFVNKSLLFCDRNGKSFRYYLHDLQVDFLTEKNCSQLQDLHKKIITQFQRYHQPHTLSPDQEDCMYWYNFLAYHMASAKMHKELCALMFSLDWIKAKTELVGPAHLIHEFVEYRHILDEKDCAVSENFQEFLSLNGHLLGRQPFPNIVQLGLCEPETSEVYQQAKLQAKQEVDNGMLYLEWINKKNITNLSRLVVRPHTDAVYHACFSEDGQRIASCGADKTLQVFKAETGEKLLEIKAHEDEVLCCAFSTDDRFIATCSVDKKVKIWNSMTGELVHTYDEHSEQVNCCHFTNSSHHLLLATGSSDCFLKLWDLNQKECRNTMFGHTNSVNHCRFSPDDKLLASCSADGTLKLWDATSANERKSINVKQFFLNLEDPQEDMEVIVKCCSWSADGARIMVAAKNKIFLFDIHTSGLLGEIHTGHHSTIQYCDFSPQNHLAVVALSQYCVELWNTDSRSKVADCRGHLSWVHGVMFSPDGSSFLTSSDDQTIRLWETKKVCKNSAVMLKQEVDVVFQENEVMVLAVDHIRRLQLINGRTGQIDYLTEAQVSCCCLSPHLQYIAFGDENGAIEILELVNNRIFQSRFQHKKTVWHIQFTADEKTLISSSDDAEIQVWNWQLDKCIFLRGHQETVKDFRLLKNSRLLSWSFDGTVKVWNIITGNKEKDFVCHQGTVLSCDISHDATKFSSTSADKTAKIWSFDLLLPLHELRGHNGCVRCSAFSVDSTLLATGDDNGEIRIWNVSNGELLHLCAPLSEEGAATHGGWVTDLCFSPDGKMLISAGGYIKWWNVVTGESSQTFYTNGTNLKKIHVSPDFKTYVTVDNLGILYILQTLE
MAP kinase-interacting serine/threonine-protein kinase 2, sequence (Q9HBH9 whole entry): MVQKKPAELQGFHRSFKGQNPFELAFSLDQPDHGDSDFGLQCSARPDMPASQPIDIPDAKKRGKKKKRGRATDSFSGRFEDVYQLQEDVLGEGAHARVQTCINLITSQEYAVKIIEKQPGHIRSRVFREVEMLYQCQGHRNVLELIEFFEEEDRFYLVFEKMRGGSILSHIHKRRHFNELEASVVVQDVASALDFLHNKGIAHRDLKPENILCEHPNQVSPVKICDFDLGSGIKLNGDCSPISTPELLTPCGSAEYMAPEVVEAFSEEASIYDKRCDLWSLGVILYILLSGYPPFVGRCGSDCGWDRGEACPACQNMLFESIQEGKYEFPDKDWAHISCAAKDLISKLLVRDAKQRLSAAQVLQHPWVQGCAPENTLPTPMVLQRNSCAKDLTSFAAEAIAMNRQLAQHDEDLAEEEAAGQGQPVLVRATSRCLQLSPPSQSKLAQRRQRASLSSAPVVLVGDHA
Fibroblast growth factor receptor 3, sequence (P22607 whole entry): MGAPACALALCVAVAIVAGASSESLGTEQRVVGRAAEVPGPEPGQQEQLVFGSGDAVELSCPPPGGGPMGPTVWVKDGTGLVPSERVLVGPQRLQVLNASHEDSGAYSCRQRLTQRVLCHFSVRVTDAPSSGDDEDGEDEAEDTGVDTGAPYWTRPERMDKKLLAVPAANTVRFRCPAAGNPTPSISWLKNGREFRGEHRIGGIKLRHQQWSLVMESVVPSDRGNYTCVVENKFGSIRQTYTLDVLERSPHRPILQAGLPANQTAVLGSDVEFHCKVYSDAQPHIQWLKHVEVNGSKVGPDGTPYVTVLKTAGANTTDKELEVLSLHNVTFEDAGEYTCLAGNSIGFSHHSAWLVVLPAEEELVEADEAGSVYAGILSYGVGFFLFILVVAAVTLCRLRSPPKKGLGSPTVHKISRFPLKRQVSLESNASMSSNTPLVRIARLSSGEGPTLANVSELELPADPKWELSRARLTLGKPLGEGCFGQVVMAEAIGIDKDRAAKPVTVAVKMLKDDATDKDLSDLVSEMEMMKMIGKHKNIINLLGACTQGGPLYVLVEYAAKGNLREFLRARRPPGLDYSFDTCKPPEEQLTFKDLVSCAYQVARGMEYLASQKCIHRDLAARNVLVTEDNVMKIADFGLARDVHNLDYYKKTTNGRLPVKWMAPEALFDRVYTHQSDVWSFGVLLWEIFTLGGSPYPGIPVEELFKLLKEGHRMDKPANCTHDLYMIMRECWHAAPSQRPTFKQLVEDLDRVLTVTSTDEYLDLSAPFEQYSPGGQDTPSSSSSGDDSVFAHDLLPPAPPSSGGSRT
Receptor tyrosine-protein kinase erbB-4, sequence (Q15303 whole entry): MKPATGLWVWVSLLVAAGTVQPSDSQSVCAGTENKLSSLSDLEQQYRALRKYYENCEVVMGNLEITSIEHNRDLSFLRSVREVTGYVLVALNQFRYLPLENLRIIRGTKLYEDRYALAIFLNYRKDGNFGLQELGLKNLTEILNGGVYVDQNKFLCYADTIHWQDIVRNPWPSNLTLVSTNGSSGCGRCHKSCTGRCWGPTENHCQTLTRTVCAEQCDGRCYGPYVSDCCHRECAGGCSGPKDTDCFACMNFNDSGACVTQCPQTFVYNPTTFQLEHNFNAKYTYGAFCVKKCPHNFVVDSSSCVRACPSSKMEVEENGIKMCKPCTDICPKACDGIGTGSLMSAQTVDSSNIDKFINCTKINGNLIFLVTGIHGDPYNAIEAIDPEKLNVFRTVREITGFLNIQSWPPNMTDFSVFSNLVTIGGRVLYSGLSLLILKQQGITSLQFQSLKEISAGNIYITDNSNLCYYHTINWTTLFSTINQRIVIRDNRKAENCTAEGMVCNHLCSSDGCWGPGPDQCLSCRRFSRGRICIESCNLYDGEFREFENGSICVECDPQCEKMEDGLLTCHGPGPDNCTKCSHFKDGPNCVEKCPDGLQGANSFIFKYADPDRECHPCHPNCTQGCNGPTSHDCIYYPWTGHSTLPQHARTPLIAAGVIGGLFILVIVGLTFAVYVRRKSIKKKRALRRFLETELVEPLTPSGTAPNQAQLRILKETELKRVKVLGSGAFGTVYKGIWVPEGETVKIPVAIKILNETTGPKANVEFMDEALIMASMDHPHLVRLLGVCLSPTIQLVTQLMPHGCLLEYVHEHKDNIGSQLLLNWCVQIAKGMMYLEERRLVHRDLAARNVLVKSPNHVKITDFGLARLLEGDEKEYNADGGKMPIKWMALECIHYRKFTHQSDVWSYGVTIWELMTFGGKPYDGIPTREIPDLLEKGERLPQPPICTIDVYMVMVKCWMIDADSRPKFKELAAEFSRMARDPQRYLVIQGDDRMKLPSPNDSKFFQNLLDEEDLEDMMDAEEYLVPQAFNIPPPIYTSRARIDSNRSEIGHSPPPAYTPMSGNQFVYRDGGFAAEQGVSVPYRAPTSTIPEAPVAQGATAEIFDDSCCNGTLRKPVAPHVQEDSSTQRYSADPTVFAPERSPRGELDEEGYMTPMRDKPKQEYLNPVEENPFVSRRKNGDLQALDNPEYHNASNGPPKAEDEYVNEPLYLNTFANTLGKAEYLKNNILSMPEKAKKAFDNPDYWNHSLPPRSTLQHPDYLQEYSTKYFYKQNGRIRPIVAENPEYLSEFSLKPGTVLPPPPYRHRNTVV

Cc1ccc(NC2=C(NCCO)C(=O)c3ccccc3C2=O)cc1
IC50 [1]: 15700 nM (active)
AC50 [2]: 40300 nM (active)

COc1ccc(C2=NNc3cccc4c(OC)ccc2c34)cc1OC
Ki [3]: > 2510 nM (inactive)

CN1CCC(c2c(O)cc(O)c3c(=O)cc(-c4ccccc4Cl)oc23)C(O)C1 (stereo not given)
Ki [4]: > 2000 nM (inactive)
Ki [5]: 1000 nM (active)
Ki [6]: > 2000 nM (inactive)
Ki [7]: 1260 nM (active)
Ki [8]: 251 nM (active)
Ki [9]: > 3980 nM (inactive)
Ki [10]: 794 nM (active)
Ki [11]: 316 nM (active)
Ki [12]: > 3160 nM (inactive)
Ki [13]: > 6310 nM (inactive)
Ki [14]: > 1580 nM (inactive)
Ki [15]: 2000 nM (active)
Ki [16]: 5010 nM (active)
Ki [17]: > 1580 nM (inactive)
Ki [18]: > 1580 nM (inactive)
Ki [19]: > 7940 nM (inactive)
Ki [20]: > 7940 nM (inactive)
Ki [21]: 5010 nM (active)
pKi [21]: 5.3
Ki [22]: > 2000 nM (inactive)
Ki [23]: > 2000 nM (inactive)
Ki [24]: > 2000 nM (inactive)
Ki [25]: > 3980 nM (inactive)
Ki [26]: > 2000 nM (inactive)
Ki [27]: 1260 nM (active)
Ki [28]: 501 nM (active)
Ki [29]: 501 nM (active)
